Reference: US12582721B2, “Molybdenum-based feed supplement for bees” (UNIVERSITE DE VERSAILLES—SAINT-QUENTIN-EN-YVELINES, priority 2020, dated 2026)

How the values were obtained:
[1] = Chemical stability of the complexes (solid, water, physiological medium, sugar syrup; 1H-NMR or UV-vis); format: physicochemical; details: for Stability in a physiological medium or in a sugar syrup: physiological medium or sugar syrup with 50% by weight, very low concentrations; for Stability in water: 5×10^−3-2×10^−7 M concentration range (K—Mo2O2S2-LCys: down to micromolar concentrations)
Source text: In solid form, the compounds obtained are perfectly stable in air and can be kept without any special conditions for years without any alteration.
The stabilities of the complexes in solution are studied by different techniques (^1H-NMR or UV-vis spectroscopy), the objective being to study their behavior in different media in terms of stability.

[2] = tested on: human epithelial pancreatic adenocarcinoma cells of the BxPC-3 line; assay: Resazurin cell proliferation test, BxPC-3 cells; format: cell-based
Source text: (§1) For cell culture, human cervical epithelial cells of the HeLa line, human epithelial pancreatic adenocarcinoma cells of the BxPC-3 line and healthy Madin-Darby canine kidney epithelial cells of the MDCK line were used in this study. The Resazurin cell proliferation test was applied according to the literature (S. Anoopkumar-Dukie, J. B. Carey, T. Conere, E. O'Sullivan, F. N. van Pelt, A. Allshire, Br J Radiol 2005, 78, 945, DOI: 10.1259/bjr/54004230). As an indicator of the effectiveness of the experimental compounds on cell proliferation, the median inhibitory concentration (IC50) was used. The lower the IC50 value, the higher the activity (in this case, the cytotoxicity).
(§2) Five formula I complexes were tested in this study in comparison to two reference anti-cancer compounds (“Cisplatin” and Doxorubicin complex).

[3] = tested on: healthy Madin-Darby canine kidney epithelial cells of the MDCK line; assay: Resazurin cell proliferation test, MDCK cells; format: cell-based
Source text: as §1, §2

[4] = tested on: human cervical epithelial cells of the HeLa line; assay: Resazurin cell proliferation test, HeLa cells; format: cell-based
Source text: as §1, §2

[5] = cited from earlier work
[6] = pancreatic cancer cells, IC50 equal to and greater than 100 μM considered no activity
[7] = healthy cells, IC50 equal to and greater than 100 μM considered no activity
[8] = cervical cancer cells, IC50 equal to and greater than 100 μM considered no activity

For `O=C([O-])CN(CCN(CC(=O)[O-])CC(=O)[O-])CC(=O)[O-].[O]=[Mo+]12[S][Mo+]1(=[O])[S]2` [[Mo2O2S2-EDTA]^2−], the “Stability in a physiological medium or in a sugar syrup” value [1] was “good stability” and the Stability in water [1] was “no sign of decomposition”.

Work on `N.N.[Cl][Pt][Cl]` [Cisplatin, reference compound] yielded an IC50 [2, 6] of 11.2 ± 1.2 µM, an IC50 [3, 7] of 30.9 ± 1.1 µM and an IC50 [4, 8] of 3.99 ± 0.33 µM.

For `[Li]` [lithium], the “Serum lithium concentration at which toxicity appears” value [5] is given as “greater than 2 mmol/l”.

In the case of `N[C@@H](C[S-])C(=O)[O-].N[C@@H](C[S-])C(=O)[O-].[K+].[K+].[O]=[Mo+]12[S][Mo+]1(=[O])[S]2` [K—Mo2O2S2-Cys, K2[Mo2O2S2 (LCys)2]·xH2O], the “IC50, BxPc-3” value [2, 6] is reported as “Inactive”, the “Stability in a physiological medium or in a sugar syrup” value [1] is reported as “good stability” and the Stability in water [1] is reported as “without any breakdown”. The “IC50, MDCK” value [3, 7] was “Inactive” and the “IC50, HeLa” value [4, 8] was “Inactive”.

Work on `COc1cccc2c1C(=O)c1c(O)c3c(c(O)c1C2=O)C[C@@](O)(C(=O)CO)C[C@@H]3O[C@H]1C[C@H](N)[C@H](O)[C@H](C)O1` [Doxorubicin, reference compound] yielded an IC50 ([2]; Homo sapiens, BXPC-3) of 3.99 ± 7.9 µM, an IC50 ([3]; Canis lupus familiaris, MDCK) of 1.48 ± 3.1 µM and an IC50 ([4]; Homo sapiens, HeLa) of 1.31 µM.

`O=C([O-])CN(CCN(CC(=O)[O-])CC(=O)[O-])CC(=O)[O-].[O]=[Mo+]12[S][Mo+]1(=[O])[S]2.c1ccc([P+](c2ccccc2)(c2ccccc2)c2ccccc2)cc1.c1ccc([P+](c2ccccc2)(c2ccccc2)c2ccccc2)cc1` [PPh4—Mo2O2S2-EDTA] gave an IC50 [2, 6] of 59.8 ± 26.4 µM, an IC50 [3, 7] of at least 100 µM and an IC50 [4, 8] of at least 100 µM.
